Measured values reported in paper PMC2784635 (Bioorganic & medicinal chemistry, 2008).

What was measured:
[1] = test system: Plasmopara viticola (vine downy mildew); assay: glasshouse foliar spray test, vine downy mildew; assay type: in vivo
[2] = test system: several fungi; details: cited from earlier work
[3] = test system: electron transport chain at complex III; details: beef heart mitochondrial respiration assay; cited from earlier work
[4] = biological target: cytochrome bc1 complex (beef heart mitochondria, NADH oxidase) (Bos taurus, UniProt P00157+P13272); assay: beef heart mitochondrial NADH oxidase assay; assay type: biochemical; details: for IC50, NADH oxidase: beef heart mitochondria, Z-enamide analogues, Table 5
[5] = simulated sunlight photostability test, thin films on glass slides; assay type: physicochemical; details: for T50 glass slides / time for 50% of parent compound being lost: thin films on glass slides
[6] = test system: plant pathogens; assay: fungicidal activity on plants; assay type: in vivo

SMILES: CCc1ccc(Cc2ccc(Cn3c(=O)oc4ccc(OCC(=O)OC)cc43)cc2)cc1 [Compound 18]
- activity on vine downy mildew on plants [1]: no activity

SMILES: COC(=O)CNC(=O)CCC/C=C\NC(=O)/C=C(C)/C=C/[C@H](C)[C@H](OC)[C@H](C)[C@H](/C=C/c1ccccc1)OC [Compound 11, crocacin D, reference compound]
- inhibition of growth of fungi in vitro [2]: inhibited the growth of several fungi in vitro
- inhibition of the electron transport chain at complex III [3]: inhibited the electron transport chain at complex III
- activity in the NADH oxidase / beef heart mitochondrial respiration assay [4]: slightly more active than crocacin A
- T50 glass slides [5]: 0.6 h
- time for 50% of parent compound being lost [5]: 37 min

SMILES: CO[C@H]([C@H](C)[C@H](/C=C/c1ccccc1)OC)[C@@H](C)/C=C/C(C)=C/C(N)=O [Compound 10, crocacin C]
- inhibition of the electron transport chain at complex III [3]: not to be active

SMILES: CCc1ccc(Oc2ccc(C(=O)N[C@H]3C[C@H]3CCC(=O)NCC(=O)OC)cc2)cc1 [Compound 24]
- activity in the NADH oxidase / beef heart mitochondrial respiration assay [4]: only very weakly active

SMILES: CCCCCCOc1ccc(C(=O)N/C=C\CCCC(=O)NCC(=O)OC)cc1 [Compound 13]
- fungicidal activity on plants [6]: inactive as fungicides
- activity in the NADH oxidase / beef heart mitochondrial respiration assay [4]: very good activity
- T50 glass slides [5]: 5 h

SMILES: CCc1ccc(Cc2ccc(Cn3c(=O)oc4ccc(NCC(=O)OC)cc43)cc2)cc1 [Compound 21]
- IC50, NADH oxidase [4]: Inactive

SMILES: COC(=O)COc1ccc2oc(=O)n(Cc3ccc(Cc4ccc(I)cc4)cc3)c2c1 [Compound 19]
- activity on vine downy mildew on plants [1]: no activity

SMILES: CCOc1ccc(Cc2ccc(C(=O)N/C=C\CCCC(=O)NCC(=O)OC)cc2)cc1 [Compound 15]
- photostability [5]: greater photostability than the natural product
- T50 glass slides [5]: 20 h

SMILES: COC(=O)CNC(=O)CCCc1ccccc1NC(=O)CCCCCCCCCc1ccccc1 [Compound 25]
- activity in the NADH oxidase / beef heart mitochondrial respiration assay [4]: completely inactive
- IC50, NADH oxidase [4]: Inactive

SMILES: C/C=C(C)/C=C/C=C/[C@H](OC)[C@@H](C)[C@@H](OC)[C@@H](C)CCc1oc2c(O)c(OC)cc(OC)c2c(=O)c1C [Compound 2, stigmatellin, reference compound]
- fungicidal activity on plants [6]: very little fungicidal activity
- activity in the NADH oxidase / beef heart mitochondrial respiration assay [4]: quite active

SMILES: CO[C@H]([C@H](C)[C@H](/C=C/c1ccccc1)OC)[C@@H](C)/C=C/C(C)=C/C(=O)N/C=C\C/C=C\C(=O)NCC(=O)O [Compound 9, crocacin B]
- inhibition of the electron transport chain at complex III [3]: not to be active

SMILES: CCCCCCCCCCCCC(=O)N/C=C\CCCC(=O)NCC(=O)OC [Compound 12]
- fungicidal activity on plants [6]: no fungicidal activity
- activity in the NADH oxidase / beef heart mitochondrial respiration assay [4]: very active
- photostability [5]: photostability was unexpectedly reduced
- T50 glass slides [5]: 0.1 h

SMILES: COC(=O)CNC(=O)/C=C\C/C=C\NC(=O)/C=C(C)/C=C/[C@H](C)[C@H](OC)[C@H](C)[C@H](/C=C/c1ccccc1)OC [Compound 8, crocacin A]
- inhibition of growth of fungi in vitro [2]: inhibited the growth of several fungi in vitro
- inhibition of the electron transport chain at complex III [3]: inhibited the electron transport chain at complex III
- time for 50% of parent compound being lost [5]: 7 min

SMILES: COC(=O)CNC(=O)CCC/C=C\NC(=O)c1ccc(Cc2ccc(Br)cc2)cc1 [Compound 14]
- photostability [5]: greater photostability than the natural product
- T50 glass slides [5]: 12 h
